Measurements reported in US12662491B2 (Redona Therapeutics, Inc., priority 2020, dated 2026).
Like-named read-outs stand apart in the source and are kept apart here.

Molecular target: T1, Zcchc11 enzyme (Homo sapiens, UniProt Q5TAX3)
T1 construct: made in house; host or cells: HEK293 cells (Zcchc11); E. coli Rosetta II (LIN28A)
T1 sequence (Q5TAX3 212-1420): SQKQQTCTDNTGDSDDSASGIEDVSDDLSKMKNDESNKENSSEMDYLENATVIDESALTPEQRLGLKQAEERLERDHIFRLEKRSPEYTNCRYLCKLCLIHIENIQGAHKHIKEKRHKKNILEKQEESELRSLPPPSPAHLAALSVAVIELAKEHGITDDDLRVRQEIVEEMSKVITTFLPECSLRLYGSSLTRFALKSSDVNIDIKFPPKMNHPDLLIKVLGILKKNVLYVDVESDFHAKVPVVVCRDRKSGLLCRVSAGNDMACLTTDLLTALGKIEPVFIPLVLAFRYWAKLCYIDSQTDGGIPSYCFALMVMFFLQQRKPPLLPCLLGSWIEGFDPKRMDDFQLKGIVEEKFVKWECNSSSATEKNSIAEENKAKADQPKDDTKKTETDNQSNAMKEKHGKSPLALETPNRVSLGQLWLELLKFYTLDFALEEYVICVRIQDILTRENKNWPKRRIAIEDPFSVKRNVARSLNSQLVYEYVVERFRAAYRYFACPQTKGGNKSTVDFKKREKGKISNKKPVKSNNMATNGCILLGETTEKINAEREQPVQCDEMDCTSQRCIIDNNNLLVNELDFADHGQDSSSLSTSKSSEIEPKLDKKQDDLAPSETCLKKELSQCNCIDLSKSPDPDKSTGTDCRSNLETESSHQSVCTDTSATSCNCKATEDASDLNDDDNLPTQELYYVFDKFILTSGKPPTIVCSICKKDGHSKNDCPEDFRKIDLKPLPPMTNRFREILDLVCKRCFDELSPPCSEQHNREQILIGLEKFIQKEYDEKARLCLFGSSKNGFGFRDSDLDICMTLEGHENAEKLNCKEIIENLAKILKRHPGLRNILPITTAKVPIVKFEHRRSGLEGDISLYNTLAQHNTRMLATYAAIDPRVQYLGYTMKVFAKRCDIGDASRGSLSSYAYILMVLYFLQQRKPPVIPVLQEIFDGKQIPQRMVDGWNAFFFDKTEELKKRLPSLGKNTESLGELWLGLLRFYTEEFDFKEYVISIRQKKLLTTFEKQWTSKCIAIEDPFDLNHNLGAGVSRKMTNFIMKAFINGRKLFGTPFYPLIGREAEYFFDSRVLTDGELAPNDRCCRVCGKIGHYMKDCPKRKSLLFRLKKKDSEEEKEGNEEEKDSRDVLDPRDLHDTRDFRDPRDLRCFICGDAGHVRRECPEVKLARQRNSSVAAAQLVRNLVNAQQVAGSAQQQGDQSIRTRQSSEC
Experiment: TUTase assay (Zcchc11 assay, Lin28a-dependent polyuridylation of pre-let-7)
Format: biochemical
Settings: read-out: Potency Lin28a-dep Z11 IC50
Procedure, shortened: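 LIN28A (10 nM) in pH 7.3 HEPES/KCl/MgCl2/DTT buffer was mixed with serially diluted compound, then 0.2 nM truncated human Zcchc11 and 2 nM labeled pre-let-7 were added for 30 min at room temperature. UTP (5 uM) and quench probe (4 nM) then started the reaction. Linear early rates gave IC50 values.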

[1] = Lin28a-dependent Zcchc11 (Z11) TUTase assay
[2] = Lin28a-dependent Zcchc11 (Z11) TUTase activity

With `[N-]=[N+]=Nc1ccc(-n2cc(C(=O)O)c(=O)c3cc(Cl)c(N4CCC[C@@H]4COc4ncccc4Cl)cc32)cn1` [Example 631, (R)-1-(6-azidopyridin-3-yl)-6-chloro-7-(2-(((3-chloropyridin-2-yl)oxy)methyl)pyrrolidin-1-yl)-4-oxo-1,4-dihydroquinoline-3-carboxylic acid] as the molecule, how does the IC50 [1] read?
The IC50 was at most 1000 nM.

`CC(Oc1ncccc1Cl)[C@H]1CCCN1c1cc2c(cc1Cl)c(=O)c(C(=O)O)cn2-c1ccccc1` (stereo partly drawn) [Example 8, (R)-6-chloro-7-(2-(1-((3-chloropyridin-2-yl)oxy)ethyl)pyrrolidin-1-yl)-4-oxo-1-phenyl-1,4-dihydroquinoline-3-carboxylic acid] was tested. Which IC50 (LIN28A 10 nM, Zcchc11 0.2 nM, 5′-fluorescein pre-let-7 miRNA 2 nM, UTP 5 uM, room temperature, 30 minutes pre-incubation) did it give?
The IC50 was 1000 to 10000 nM.

For `O=C(O)c1cn(-c2ccc(F)c(F)c2)c2cc(N3CCC[C@@H]3COc3ccccn3)c(F)cc2c1=O` [Compound 149, (R)-1-(3,4-difluorophenyl)-6-fluoro-4-oxo-7-(2-((pyridin-2-yloxy)methyl)pyrrolidin-1-yl)-1,4-dihydro-quinoline-3-carboxylic acid], which IC50 [2] is on record?
The IC50 was 1000 to 10000 nM.

With `CN(C)C1CN(c2ccc(-n3cc(C(=O)O)c(=O)c4cc(Cl)c(N5CCC(C)(C)C5COc5ncccc5Cl)cc43)cn2)C1` (stereo not shown) [Compound 259, 6-chloro-7-(2-(((3-chloropyridin-2-yl)oxy)methyl)-3,3-dimethyl-pyrrolidin-1-yl)-1-(6-(3-(dimethyl-amino)azetidin-1-yl)pyridin-3-yl)-4-oxo-1,4-dihydro-quinoline-3-carboxylic acid] as the molecule, how does the IC50 [2] read?
The IC50 was at most 1000 nM.

For `O=C(O)c1cn2c3cc(c(F)cc3c1=O)N1CCC[C@@H]1COc1ncccc1OCCOc1ccc-2cc1` (racemic) [Compound 312, rac-(R)-26-fluoro-24-oxo-21,24-dihydro-5,7,10-trioxa-2(1,7)-quinolina-6(2,3)-pyridina-3(1,2)-pyrrolidina-1(1,4)-benzenacyclo-decaphane-23-carboxylic acid formic acid], which IC50 [2] is on record?
Its IC50 is over 50000 nM.

With `O=C(O)c1cn(-c2cnn3c2CNCC3)c2cc(N3CCC[C@@H]3COc3ncccc3Cl)c(Cl)cc2c1=O` [Example 514, (R)-6-chloro-7-(2-(((3-chloropyridin-2-yl)oxy)methyl)pyrrolidin-1-yl)-4-oxo-1-(4,5,6,7-tetrahydropyrazolo [1,5-a]pyrazin-3-yl)-1,4-dihydroquinoline-3-carboxylic acid] as the molecule, how does the IC50 [1] read?
Its IC50 is at most 1000 nM.

For `O=C(O)c1cn(-c2ccccc2)c2cc(N3CCC[C@@H]3COc3ncccc3F)c(F)cc2c1=O` [Compound 98, (R)-6-fluoro-7-(2-(((3-fluoropyridin-2-yl)oxy)methyl)pyrrolidin-1-yl)-4-oxo-1-phenyl-1,4-dihydro-quinoline-3-carboxylic acid], which IC50 [2] is on record?
Its IC50 is at most 1000 nM.

Which IC50 [1] does the source give for `Cc1cc(O)ccc1-n1cc(C(=O)O)c(=O)c2cc(F)c(N3CCC[C@@H]3COc3ccccn3)cc21` [Example 396, (R)-6-fluoro-1-(4-hydroxy-2-methylphenyl)-4-oxo-7-(2-((pyridin-2-yloxy)methyl)pyrrolidin-1-yl)-1,4-dihydroquinoline-3-carboxylic acid] here?
The IC50 was 1000 to 10000 nM.

`COc1ccc(Cl)c(OC[C@H]2CC(c3ccc(O)nc3)CN2c2cc3c(cc2F)c(=O)c(C(=O)O)cn3-c2ccc(N3CC(N(C)C)C3)nc2)n1` (mixture of isomers) [Compound 224, Formic acid compound with rac-7-((2R)-2-(((3-chloro-6-methoxy-pyridin-2-yl)oxy)methyl)-4-(6-hydroxy-pyridin-3-yl)pyrrolidin-1-yl)-1-(6-(3-(dimethyl-amino)azetidin-1-yl)pyridin-3-yl)-6-fluoro-4-oxo-1,4-dihydro-quinoline-3-carboxylic acid (1:1)] was tested. Which IC50 [2] did it give?
The IC50 was at most 1000 nM.

How did the IC50 [2] turn out when `CN(C(=O)[C@H]1CCCN1c1cc2c(cc1Cl)c(=O)c(C(=O)O)cn2-c1cnccn1)c1ccccn1` (racemic) [Compound 178, rac-(R)-6-chloro-7-(2-(methyl (pyridin-2-yl)carbamoyl)pyrrolidin-1-yl)-4-oxo-1-(pyrazin-2-yl)-1,4-dihydro-quinoline-3-carboxylic acid] was run?
The IC50 was over 50000 nM.
